Data reported in patent US5330897A, “Sialic acid binding lectin of protozoan origin” (South Alabama Medical Science Foundation, priority 1992, dated 1994).

B1: Fetuin: sialoconjugate (sialoglycoprotein) (protein, UniProt P12763 19-359, looked up)
Alpha-2-HS-glycoprotein: IPLDPVAGYKEPACDDPDTEQAALAAVDYINKHLPRGYKHTLNQIDSVKVWPRRPTGEVYDIEIDTLETTCHVLDPTPLANCSVRQQTQHAVEGDCDIHVLKQDGQFSVLFTKCDSSPDSAEDVRKLCPDCPLLAPLNDSRVVHAVEVALATFNAESNGSYLQLVEISRAQFVPLPVSVSVEFAVAATDCIAKEVVDPTKCNLLAEKQYGFCKGSVIQKALGGEDVRVTCTLFQTQPVIPQPQPDGAEAEAPSAVPDAAGPTPSAAGPPVASVVVGPSVVAVPLPLHRAHYDLRHTFSGVASVESSSGEAFHVGKTPIVGQPSIPGGPVRLCPGRIRYFKI

What was measured:
[1] = test system: T. mobilensis lectin; experiment: Inhibition of T. mobilensis lectin-mediated hemagglutination; assay type: biochemical, Tritrichomonas mobilensis; conditions: for Minimal Inhibitory Conc.: 2 units of hemagglutinin; for Inhibition of HA activity of purified lectin (in words): concentrations up to 100 mM where stated
[2] = test system: sialidase from T. mobilensis; experiment: Inhibition of sialidase activity associated with the affinity column; assay type: biochemical, Tritrichomonas mobilensis; conditions: 1 mM inhibitor
Method: Free sialic acid release from bovine submaxillary mucin was used to determine enzymatic activity. Sample to be tested (total volume 50 μl) was mixed with 250 μl of 0.1M acetate, pH 5.0 and 200 μl of 1% mucin in water. After incubation at 37° for 30 minutes, 0.5 ml of 5% phosphotungstic acid in 2.5N HCl was added with vortexing. Assay tubes were centrifuged at 2000×g for 10 minutes, and 250 μl of the supernatant was assayed for sialic acid by the thiobarbituric acid method (Warren, J. Biol. Chem. 234:1971-1975 (1959)). Activity was calculated as μmoles of sialic acid released during a 30 min incubation at 37°. Controls were identical samples precipitated by phosphotungstic acid before the 37° incubation.
The sialidase(s) from T. mobilensis can be separated from HA activity by carefully controlling elution conditions from the affinity column. […] Affinity purified lectin is not inhibited at inhibitor concentrations up to 100 mM, while the sialidase activity associated with the column is inhibited by 50% at 1 mM inhibitor. […] Alternatively, they may simply reflect the affinity of the sialidase for mucin.

[3] = test system: T. mobilensis hemolysis of erythrocytes; experiment: Whole organism hemolysis assay, inhibition; assay type: cell-based, Tritrichomonas mobilensis
Source text: Tritrichomonas mobilensis, an enteric parasite of squirrel monkeys, adheres readily to isolated monkey intestinal epithelial cells and agglutinates human erythrocytes in vitro. These activities are mediated by a sialic acid binding lectin. Hemagglutination by either parasites or purified lectin is inhibited by N-acetylneuraminic acid and anti-lectin monoclonal antibody (MAB), but not by 2,3-dehydro-2-desoxy-N-acetylneuraminic acid, a neuraminidase inhibitor. T. mobilensis hemolyzes erythrocytes in a modification of a previously published whole organism hemolysis assay. Hemolysis is inhibited by N-acetylneuraminic acid, 2,3-dehydro-2-desoxy-N-acetylneuraminic acid, anti-lectin MAB, T. mobilensis lectin and other sialic acid binding lectins, fetuin, and colominic acid, but not by asialofetuin, or leupeptin. Desialated erythrocytes are neither agglutinated nor hemolyzed.

[4] = test system: T. mobilensis cell-free lysate hemagglutinin; experiment: Inhibition of HA activity of T. mobilensis cell-free lysate; assay type: biochemical, Tritrichomonas mobilensis
[5] = test system: T. foetus cell-free lysate hemagglutinin; experiment: Inhibition of HA activity of T. foetus cell-free lysate; assay type: biochemical, Tritrichomonas foetus
[6] = test system: T. augusta cell-free lysate hemagglutinin; experiment: Inhibition of HA activity of T. augusta cell-free lysate; assay type: biochemical, Tritrichomonas augusta
[7] = test system: T. mobilensis attachment to CHO cells; experiment: Carbohydrate inhibition of T. mobilensis adherence to CHO cells; assay type: cell-based, Tritrichomonas mobilensis; conditions: concentration-dependent; other carbohydrates up to 100 mM
Method: The kinetics of T. mobilensis-CHO trypsin-dispersed cell interactions were studied in a cell suspension system. Equal volumes (100 μl) of 10^5 CHO cells and 10^6 (unless otherwise specified) trichomonads resuspended in serum-free M199 were mixed in microfuge tubes and incubated at room temperature (unless otherwise stated) with gentle agitation. Periodically the percentage of CHO cells with adherent flagellates was determined microscopically in wet-mount preparations, 100 CHO cells being examined in each preparation.

[8] = test system: live T. mobilensis flagellates; experiment: Inhibition of hemagglutination by live T. mobilensis; conditions: sugars up to 100 mM; normal erythrocytes, room temperature
[9] = test system: live cells of T. foetus; experiment: Inhibition of HA by live cells of T. foetus; assay type: cell-based, Tritrichomonas foetus

| Molecule | Minimal Inhibitory Conc. ([1]; carbohydrates) [mM] | Inhibition of HA activity of purified lectin (in words) [1] | Inhibition of hemolysis [3] | Inhibition of attachment of parasites to CHO cells [7] | Inhibition of hemagglutination by live T. mobilensis [8] | also measured |
| --- | --- | --- | --- | --- | --- | --- |
| CC(=O)N[C@H]1[C@H]([C@H](O)[C@H](O)CO)OC(C(=O)O)=C[C@@H]1O [2,3-dehydro-2-deoxy-N-acetylneuraminic acid] | > 100 | not inhibited | inhibited |  |  | Inhibition of sialidase activity [2]: 50% |
| CC(=O)N[C@H]1[C@H]([C@H](O)[C@H](O)CO)OC(O)(C(=O)O)C[C@@H]1O (stereo partly shown) [N-acetylneuraminic acid] | 2.0 | inhibited | inhibited | inhibited | inhibited | Conc. required to inhibit 2 HA units, T. mobilensis ([4]; carbohydrates, […]): 5 µg/mL; Conc. required to inhibit 2 HA units, T. foetus ([5]; carbohydrates, […]): > 200 µg/mL; Conc. required to inhibit 2 HA units, T. augusta ([6]; carbohydrates, […]): 10 µg/mL |
| O=C(CO)N[C@H]1[C@H]([C@H](O)[C@H](O)CO)OC(O)(C(=O)O)C[C@@H]1O (stereo partly shown) [N-glycolylneuraminic acid] | 8.3 |  |  |  | inhibited |  |
| N-acetylneuraminic acid-lactose [sialyllactose] |  |  |  | inhibited | inhibited |  |
| B1 |  |  | inhibited |  |  | Conc. required to inhibit 2 HA units, T. mobilensis ([4]; sialoglycoproteins): 100 µg/mL; Conc. required to inhibit 2 HA units, T. foetus ([5]; sialoglycoproteins): 60 µg/mL; Conc. required to inhibit 2 HA units, T. augusta ([6]; sialoglycoproteins): 100 µg/mL; Conc. required to Inhibit 2 HA Units [9]: 60 µg/mL; Minimal Inhibitory Conc. ([1]; glycoproteins or proteins): 8.33 µg/mL |
